In patent US9428487B2, “Heteroaromatic amides and thioamides as pesticides” (Bayer Intellectual Property GmbH, priority 2008, dated 2016):
Like-named read-outs stand apart in the source and are kept apart here.

Experiments:
[1] = Determination of log P values by HPLC on reversed-phase column (formic acid method); format: physicochemical; conditions: reversed-phase C 18, acidic range (pH 3.4), formic acid eluents, 55° C., read-out: logP (HCOOH)
Experimental: 1) Description of Method for Determining the Log P Values (Formic Acid Method)
The log P values reported in the table were determined according to EEC-Directive 79/831 Annex V.A8 by HPLC (High Performance Liquid Chromatography) on a reversed-phase column (C 18). […]
Eluent A: acetonitrile+1 ml of formic acid/liter. Eluent B: water+0.9 ml of formic acid/liter.
Gradient: from 10% eluent A/90% eluent B to 95% eluent A/5% eluent B in 4.25 min
The calibration was effected with unbranched alkan-2-ones (with 3 to 16 carbon atoms), whose log P values are known (determination of the log P values on the basis of the retention times by linear interpolation between two successive alkanones). The lambda-max values were determined with reference to the UV spectra from 200 nm to 400 nm in the maxima of the chromatographic signals.

[2] = system: green peach aphid (Myzus persicae); test: Myzus test; format: in vivo; conditions: read-out: efficacy (aphids killed)
Experimental: • Solvent: 78.0 parts by weight of acetone • 1.5 parts by weight of dimethylformamide • Emulsifier: 0.5 part by weight of alkylaryl polyglycol ether
To produce an appropriate active ingredient formulation, 1 part by weight of active ingredient is mixed with the amounts of solvent and emulsifier specified and the concentrate is diluted to the desired concentration with emulsifier-containing water.
Chinese cabbage leaf slices (Brassica pekinensis) infested by all stages of the green peach aphid (Myzus persicae) are sprayed with an active ingredient formulation of the desired concentration.
After the desired time, the efficacy in % is determined 100% means that all aphids have been killed; 0% means that no aphids have been killed.

[3] = reversed-phase HPLC column (C 18), pH 3.4, HPLC
[4] = application rate 500 g/ha, spray on Chinese cabbage leaf slices

chromatographic logP [1, 3]	Structure (SMILES)	pest or weed control at 500 g/ha [2, 4]	chromatographic logP ([1]; HPLC)	pest or weed control at 500 g/ha ([2]; in Brassica rapa)
0.8	Cc1nc(-c2cccnc2)sc1C(=O)N(C)CC(=O)N(C)C [Compound 133]	≥ 70%		
0.41	CN(Cc1ccccn1)C(=O)c1cnc(-c2cccnc2)s1 [Compound 134]	≥ 70%		
0.46	Cc1nc(-c2cccnc2)sc1C(=O)NCc1cccnc1 [Compound 135]	≥ 70%		
1.17	CN(CCF)C(=O)c1cnc(-c2cccnc2)s1 [Compound 136]	≥ 70%		
1.28	CCN(CC#N)C(=O)c1cnc(-c2cccnc2)s1 [Compound 137]	≥ 70%		
1.09	COC(=O)C[n+]1cccc(-c2nc(C)c(C(=O)NCC(F)(F)F)s2)c1 [Compound 138]	≥ 70%		
2.47	CC#CCN(CC(F)(F)F)C(=O)c1sc(-c2cccnc2)nc1C [Compound 139]	≥ 70%		
1.93	Cc1nc(-c2cccnc2)sc1C(=O)N(CC#N)C(=O)C1(F)CC1 [Compound 140]	≥ 70%		
2.1	CCOC(=O)C(CC)N(C)C(=O)c1sc(-c2cccnc2)nc1C (stereo not shown) [Compound 141]	≥ 70%		
1.56	Cc1nc(-c2cccnc2)sc1C(=O)N(CC#N)C(C)C [Compound 142]	≥ 70%		
1.42	CON(C)C(=O)c1sc(-c2cccnc2)nc1C [Compound 143]	≥ 70%		
1.45	CCOC1(NC(=O)c2sc(-c3cccnc3)nc2C)CC1 [Compound 144]	≥ 70%		
1.38	Cc1nc(-c2cccnc2)sc1C(=O)NCc1cc(C)n(C)n1 [Compound 145]	≥ 70%		
2.48	Cc1nc(-c2cccnc2)sc1C(=O)NC(C(C)C)C(F)(F)F (stereo not shown) [Compound 146]	≥ 70%		
1.45	Cc1nc(-c2cccnc2)sc1C(=O)NCc1ncc(Cl)cn1 [Compound 147]	≥ 70%		
1.38	CSCCN(C)C(=O)c1cnc(-c2cccnc2)s1 [Compound 148]	≥ 70%		
2.48	Cc1nc(-c2cccnc2)sc1C(=O)NC1CCCC(C(F)(F)F)C1 (stereo not shown) [Compound 149]	≥ 70%		
1.19	Cc1nc(-c2cccnc2)sc1C(=O)NCCC#N [Compound 150]	≥ 70%		
1.01	Cc1nc(-c2cccnc2)sc1C(=O)NC(C)c1nn(C)c(=O)n1C (stereo not shown) [Compound 151]	≥ 70%		
2.95	Cc1nc(-c2cccnc2)sc1C(=O)NC1CC(C(F)(F)F)CC(C(F)(F)F)C1 (stereo not shown) [Compound 152]	≥ 70%		
2.43	Cc1nc(-c2cccnc2)sc1C(=O)NCC1CCCCC1 [Compound 153]	≥ 70%		
1.21	CC(c1ccccn1)N(C)C(=O)c1cnc(-c2cccnc2)s1 (stereo not shown) [Compound 154]	≥ 70%		
1.48	Cc1nc(-c2cccnc2)sc1C(=O)NCC1COC(C)(C)O1 (stereo not shown) [Compound 155]	≥ 70%		
1.66	C#CC(C)(C)NC(=O)c1sc(-c2cccnc2)nc1C [Compound 156]	≥ 70%		
1.69	Cc1nc(-c2cccnc2)sc1C(=O)NC(C)(C#N)C1CCCO1 (stereo not shown) [Compound 157]	≥ 70%		

chromatographic logP [1, 3]	Structure (SMILES)	pest or weed control at 500 g/ha [2, 4]	chromatographic logP ([1]; HPLC)	pest or weed control at 500 g/ha ([2]; in Brassica rapa)
1.48	C#CC(C)ONC(=O)c1sc(-c2cccnc2)nc1C (stereo not shown) [Compound 158]	≥ 70%		
1.26	Cc1nc(-c2cccnc2)sc1C(=O)N(C)CC1COCCO1 (stereo not shown) [Compound 159]	≥ 70%		
1.27	Cc1nc(-c2cccnc2)sc1C(=O)NCC1(C)CCCO1 (stereo not shown) [Compound 160]	≥ 70%		
1.26	Cc1cc(CN(C)C(=O)c2cnc(-c3cccnc3)s2)nn1C [Compound 161]	≥ 70%		
1.78	Cc1nc(-c2cccnc2)sc1C(=O)N(C)CC(=O)OC(C)C [Compound 162]	≥ 70%		
1.1	Cc1nc(-c2cccnc2)sc1C(=O)N(C)CCC#N [Compound 163]	≥ 70%		
1.52	Cc1cc(CN(C)C(=O)c2sc(-c3cccnc3)nc2C)no1 [Compound 164]	≥ 70%		
1.06	Cc1nc(C)n(C(C)CNC(=O)c2sc(-c3cccnc3)nc2C)n1 (stereo not shown) [Compound 165]	≥ 70%		
1.44	Cc1nc(CN(C)C(=O)c2cnc(-c3cccnc3)s2)c(C)o1 [Compound 166]	≥ 70%		
0.97	Cc1nc(-c2cccnc2)sc1C(=O)NC1(c2ccccn2)CC1 [Compound 167]	≥ 70%		
1.89	Cc1nc(-c2cccnc2)sc1C(=O)NC(C)C(F)(F)F (stereo not shown) [Compound 168]	≥ 70%		
0.69	Cc1nc(-c2cccnc2)sc1C(=O)NCc1ccncc1 [Compound 169]	≥ 70%		
1.68	Cc1nc(-c2cccnc2)sc1C(=O)N(C)CC1CC1 [Compound 170]	≥ 70%		
2.3	O=C(NC(C(F)(F)F)C(F)(F)F)c1cnc(-c2cccnc2)s1 [Compound 171]	≥ 70%		
1.63	Cc1nc(-c2cccnc2)sc1C(=O)NCc1nc(C2CC2)no1 [Compound 172]	≥ 70%		
1.5	CCON(C)C(=O)c1cnc(-c2cccnc2)s1 [Compound 173]	≥ 70%		
1.44	COC(C)(CNC(=O)c1sc(-c2cccnc2)nc1C)OC [Compound 174]	≥ 70%		
1.02	CC(=O)CNC(=O)c1sc(-c2cccnc2)nc1C [Compound 175]	≥ 70%		
1.19	CCc1nccc(CNC(=O)c2cnc(-c3cccnc3)s2)n1 [Compound 176]	≥ 70%		
	Cc1nc(-c2cccnc2)sc1C(=O)NCCCl [Compound 177]		1.41	≥ 70%
1.65	CCOC(=O)CN(OC)C(=O)c1cnc(-c2cccnc2)s1 [Compound 178]	≥ 70%		
1.68	O=C(NCc1cccc(Br)n1)c1cnc(-c2cccnc2)s1 [Compound 179]	≥ 70%		
1.33	CN(CC1CCCO1)C(=O)c1cnc(-c2cccnc2)s1 (stereo not shown) [Compound 180]	≥ 70%		
2.58	CCCC(NC(=O)c1sc(-c2cccnc2)nc1C)C(F)(F)F (stereo not shown) [Compound 181]	≥ 70%		
2.24	Cc1nc(-c2cccnc2)sc1C(=O)NC(C)(C)C(F)(F)F [Compound 182]	≥ 70%		
